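Assay format: 96-well plates, 48-hour exposure. At the GI50, growth is halved. Definition used: TGI = concentration required for complete inhibition of growth.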
Columns and labels:
Assay in all cases: NCI anticancer screen, dose series, 48 h; in the data active means GI50 below about 0.43 µM; inactive means the rest
COLO 205 colon = system: COLO 205 colon
NCI-H226 lung = system: NCI-H226 lung
NCI/ADR-RES ovarian = system: NCI/ADR-RES ovarian
UO-31 renal = system: UO-31 renal
LOX IMVI melanoma = system: LOX IMVI melanoma
HOP-92 NSCLC = system: HOP-92 NSCLC
A498 renal = system: A498 renal
OVCAR-4 ovarian = system: OVCAR-4 ovarian
PC-3 prostate = system: PC-3 prostate
HCC-2998 colon = system: HCC-2998 colon
SF-295 CNS = system: SF-295 CNS
SK-MEL-2 melanoma = system: SK-MEL-2 melanoma
SF-539 CNS = system: SF-539 CNS
HT29 colon = system: HT29 colon
MALME-3M melanoma = system: MALME-3M melanoma
SNB-19 CNS = system: SNB-19 CNS
CCRF-CEM leukemia = system: CCRF-CEM leukemia
NCI-H23 lung = system: NCI-H23 lung
MDA-MB-435 = system: MDA-MB-435
SW-620 colon = system: SW-620 colon
RPMI-8226 leukemia = system: RPMI-8226 leukemia
HOP-62 NSCLC = system: HOP-62 NSCLC
K-562 leukemia = system: K-562 leukemia
SF-268 CNS = system: SF-268 CNS
RXF 393 renal = system: RXF 393 renal
UACC-257 melanoma = system: UACC-257 melanoma
OVCAR-8 ovarian = system: OVCAR-8 ovarian
T-47D breast = system: T-47D breast
M14 melanoma = system: M14 melanoma
MOLT-4 leukemia = system: MOLT-4 leukemia
786-0 renal = system: 786-0 renal
ACHN renal = system: ACHN renal
OVCAR-5 ovarian = system: OVCAR-5 ovarian
TK-10 renal = system: TK-10 renal
BT-549 breast = system: BT-549 breast
KM12 colon = system: KM12 colon
EKVX NSCLC = system: EKVX NSCLC
NCI-H460 lung = system: NCI-H460 lung
U251 CNS = system: U251 CNS
SK-MEL-28 melanoma = system: SK-MEL-28 melanoma
SK-OV-3 ovarian = system: SK-OV-3 ovarian
UACC-62 melanoma = system: UACC-62 melanoma
SK-MEL-5 melanoma = system: SK-MEL-5 melanoma
MDA-MB-231 breast = system: MDA-MB-231 breast
DU-145 prostate = system: DU-145 prostate
SNB-75 CNS = system: SNB-75 CNS
A549 NSCLC = system: A549 NSCLC
HL-60(TB) leukemia = system: HL-60(TB) leukemia
MCF7 breast = system: MCF7 breast
HCT-15 colon = system: HCT-15 colon
SN12C renal = system: SN12C renal
SR leukemia = system: SR leukemia
HCT-116 colon = system: HCT-116 colon
OVCAR-3 ovarian = system: OVCAR-3 ovarian
IGROV1 ovarian = system: IGROV1 ovarian
NCI-H522 lung = system: NCI-H522 lung

CC(=O)Oc1ccc(/C=N/NC(N)=S)nc1
> 100 µM: TGI (COLO 205 colon) | TGI (NCI/ADR-RES ovarian) | TGI (LOX IMVI melanoma) | TGI (HOP-92 NSCLC) | TGI (OVCAR-4 ovarian) | TGI (PC-3 prostate) | TGI (HCC-2998 colon) | TGI (SK-MEL-2 melanoma) | TGI (SF-539 CNS) | TGI (HT29 colon) | TGI (SNB-19 CNS) | TGI (NCI-H23 lung) | TGI (MDA-MB-435) | TGI (SW-620 colon) | TGI (RPMI-8226 leukemia) | TGI (K-562 leukemia) | TGI (RXF 393 renal) | TGI (OVCAR-8 ovarian) | TGI (T-47D breast) | TGI (MOLT-4 leukemia) | TGI (ACHN renal) | TGI (OVCAR-5 ovarian) | TGI (TK-10 renal) | TGI (KM12 colon) | TGI (EKVX NSCLC) | TGI (NCI-H460 lung) | TGI (U251 CNS) | TGI (SK-MEL-28 melanoma) | TGI (SK-OV-3 ovarian) | TGI (UACC-62 melanoma) | TGI (MDA-MB-231 breast) | TGI (SNB-75 CNS) | TGI (A549 NSCLC) | TGI (MCF7 breast) | TGI (HCT-15 colon) | TGI (SN12C renal) | TGI (SR leukemia) | TGI (HCT-116 colon) | TGI (OVCAR-3 ovarian) | TGI (NCI-H522 lung)
74.3 µM: TGI (NCI-H226 lung)
42.6 µM: TGI (SF-295 CNS)
23.4 µM: TGI (SK-MEL-5 melanoma)
8.44 µM: TGI (HL-60(TB) leukemia)
77.6 µM: TGI (HOP-62 NSCLC)
8.59 µM: TGI (SF-268 CNS)
26.8 µM: TGI (IGROV1 ovarian)
8.72 µM: TGI (M14 melanoma)
9.43 µM: TGI (CCRF-CEM leukemia)
14.1 µM: TGI (UO-31 renal)
16.1 µM: TGI (786-0 renal)
43.5 µM: TGI (MALME-3M melanoma)
57.7 µM: TGI (UACC-257 melanoma)
8.38 µM: TGI (DU-145 prostate)
58.9 µM: TGI (A498 renal)
68.9 µM: TGI (BT-549 breast)
inactive: GI50 (COLO 205 colon) 31 µM | GI50 (NCI-H226 lung) 22.1 µM | GI50 (NCI/ADR-RES ovarian) 3.48 µM | GI50 (UO-31 renal) 3.51 µM | GI50 (LOX IMVI melanoma) 3.54 µM | GI50 (HOP-92 NSCLC) 12.9 µM | GI50 (A498 renal) 4.88 µM | GI50 (OVCAR-4 ovarian) 6.03 µM | GI50 (PC-3 prostate) 5.28 µM | GI50 (HCC-2998 colon) 8.96 µM | GI50 (SF-295 CNS) 6.42 µM | GI50 (SK-MEL-2 melanoma) 77 µM | GI50 (SF-539 CNS) 2.36 µM | GI50 (HT29 colon) 19 µM | GI50 (MALME-3M melanoma) 4.96 µM | GI50 (SNB-19 CNS) 8.77 µM | GI50 (CCRF-CEM leukemia) 2.58 µM | GI50 (NCI-H23 lung) 2.39 µM | GI50 (MDA-MB-435) 5.14 µM | GI50 (SW-620 colon) 5.59 µM | GI50 (RPMI-8226 leukemia) 9.43 µM | GI50 (HOP-62 NSCLC) 6.15 µM | GI50 (K-562 leukemia) 6 µM | GI50 (SF-268 CNS) 1.91 µM | GI50 (RXF 393 renal) 4.24 µM | GI50 (UACC-257 melanoma) 14.2 µM | GI50 (OVCAR-8 ovarian) 2.85 µM | GI50 (T-47D breast) 5.39 µM | GI50 (M14 melanoma) 2.72 µM | GI50 (MOLT-4 leukemia) 2.57 µM | GI50 (786-0 renal) 3.53 µM | GI50 (ACHN renal) 3.49 µM | GI50 (OVCAR-5 ovarian) 69 µM | GI50 (TK-10 renal) 47.8 µM | GI50 (BT-549 breast) 3.4 µM | GI50 (KM12 colon) 4.82 µM | GI50 (EKVX NSCLC) 10.8 µM | GI50 (NCI-H460 lung) 9.36 µM | GI50 (U251 CNS) 4.17 µM | GI50 (SK-MEL-28 melanoma) 25.5 µM | GI50 (SK-OV-3 ovarian) 17.8 µM | GI50 (UACC-62 melanoma) 4.36 µM | GI50 (SK-MEL-5 melanoma) 3.38 µM | GI50 (MDA-MB-231 breast) 11.2 µM | GI50 (DU-145 prostate) 2.36 µM | GI50 (SNB-75 CNS) 11.7 µM | GI50 (A549 NSCLC) 29.5 µM | GI50 (HL-60(TB) leukemia) 1.74 µM | GI50 (MCF7 breast) 2.13 µM | GI50 (HCT-15 colon) 22.5 µM | GI50 (SN12C renal) 4.06 µM | GI50 (SR leukemia) 1.51 µM | GI50 (HCT-116 colon) 4.48 µM | GI50 (OVCAR-3 ovarian) 2.72 µM | GI50 (IGROV1 ovarian) 4.5 µM | GI50 (NCI-H522 lung) 2.61 µM

Source: PubChem BioAssay (NCI)
